Earlier results on one molecule are cited in patent publication US20230295082A1, “MODIFIED EZETIMIBE DRUG FOR CANCER TREATMENT” (University of South Africa, priority 2020, published 2023).

Molecules are shown by their SMILES.

Series [1] addresses Mdm2 p53-binding domain (Homo sapiens, UniProt Q00987). The following applies: applicant's previous work.
For series [2], the system named is cancer cell lines, especially those that overexpress Mdm2.

Sequence of Mdm2 p53-binding domain (Q00987 26-109 limits assumed): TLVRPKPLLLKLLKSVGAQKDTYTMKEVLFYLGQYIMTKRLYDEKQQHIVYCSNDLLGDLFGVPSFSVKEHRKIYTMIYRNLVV

Turning to `O=C1[C@H](CC[C@H](O)c2ccc(F)cc2)[C@@H](c2ccc(O)cc2)N1c1ccc(F)cc1` [ezetimibe], the “binding to the Mdm2 hydrophobic pocket relative to nutlins” value in series [1] is on record as “bind more strongly than nutlins”. For the same molecule, the “toxicity to cancer cell lines” value in series [2] was “toxic to cancer cell lines”.
